Reference: patent publication US20160075689A1, “POLYMERASE, ENDONUCLEASE, AND HELICASE INHIBITORS AND METHODS OF USING THEREOF” (THE BOARD OF TRUSTEES OF THE UNIVERSITY OF ARKANSAS, priority 2013, published 2016)

The molecules below were run against T1, EndoG (Homo sapiens, UniProt Q14249) (assay: High-throughput EndoG screening assay). Settings: 20 min; compound 1 μM; read-out: % EndoG activity in the presence of the compound.
T1 sequence (Q14249 49-297): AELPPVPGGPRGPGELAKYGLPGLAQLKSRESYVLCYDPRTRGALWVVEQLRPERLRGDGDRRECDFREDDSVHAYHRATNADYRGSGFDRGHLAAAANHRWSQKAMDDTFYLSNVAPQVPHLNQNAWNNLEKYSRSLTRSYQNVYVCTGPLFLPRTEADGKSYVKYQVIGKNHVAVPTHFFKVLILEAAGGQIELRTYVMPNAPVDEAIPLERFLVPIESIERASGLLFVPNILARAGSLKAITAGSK
Format: biochemical
Experimental: A reaction mixture was prepared in each well of a white 96-well plate (Costar, Corning, N.Y.) as follows: 0.25 μM Cy5.5-labeled oligonucleotide (described in US provisional patent filed Oct. 19, 2012, Ser. No. 61/716,097) 0.3 mM MgCl2, 10 mM Tris-HCl, pH 7.4, 1 μl DMSO containing 5 or 50 ng of test compound, and nuclease-free water for a total reaction volume of 100 μl. The background (negative control) and uninhibited EndoG samples were measured using DMSO only, or DMSO containing recombinant EndoG (4 μg/ml), respectively. After addition of EndoG, fluorescence intensity was kinetically measured on a Bio-Tek Synergy 4.0 plate reader at 37° C. and mean velocity (mRFU/min) within 20 min was automatically calculated by the plate reader. The background was subtracted prior to the calculation of EndoG activity (%). The percent of EndoG activity was calculated from the mean velocity of a compound divided by the mean velocity of DMSO with recombinant EndoG, and the obtained value multiplied by 100.

Question: Which remaining activity at 1 µM does the source give for O=C1NC(=O)C(=Cc2cn(Cc3cccc4ccccc34)c3ccc(Cl)cc23)C(=O)N1 [PNR-6-88] here?
Answer: 22.9%

Question: With CN1C(=O)C(=Cc2cn(C(=O)c3ccc4ccccc4c3)c3ccc(Cl)cc23)C(=O)N(C)C1=O [PNR-6-60] as the molecule, how does the remaining activity at 1 µM read?
Answer: 67.9%

Question: O=C1NC(=S)NC(=O)C1=Cc1cn(Cc2ccccc2Br)c2ccccc12 [PNR-7-8] was tested. Which remaining activity at 1 µM did it give?
Answer: 58%

Question: For O=C1NC(=S)NC(=O)C1=Cc1cn(Cc2cccc(C(F)(F)F)c2)c2ccc(Cl)cc12 [PNR-7-18], which remaining activity at 1 µM is on record?
Answer: 14.1%

Question: How did the remaining activity at 1 µM turn out when COc1ccc2c(c1)c(C=C1C(=O)NC(=S)NC1=O)cn2Cc1cccc2ccccc12 [PNR-6-86] was run?
Answer: 9.55%

Question: COc1ccc2c(c1)c(C=C1C(=O)NC(=S)NC1=O)c(C)n2C(=O)c1cccc2ccccc12 [PNR-6-74] was tested. Which remaining activity at 1 µM did it give?
Answer: 63.5%

Question: Which remaining activity at 1 µM does the source give for O=C1NC(=S)NC(=O)C1=Cc1cn(Cc2cccc3ccccc23)c2ccc(Br)cc12 [PNR-6-92] here?
Answer: 8.9%

Question: For Cc1c(C=C2C(=O)NC(=S)NC2=O)c2ccccc2n1C(=O)c1ccc2ccccc2c1 [PNR-6-69], which remaining activity at 1 µM is on record?
Answer: 31.6%

Question: Cc1c(C=C2C(=O)NC(=S)NC2=O)c2ccccc2n1Cc1cccc(C(F)(F)F)c1 [PNR-7-24] was tested. Which remaining activity at 1 µM did it give?
Answer: 73.6%

Question: CN1C(=O)C(=Cc2cn(C(=O)c3cccc4ccccc34)c3ccc(Cl)cc23)C(=O)N(C)C1=O [PNR-6-59] was tested. Which remaining activity at 1 µM did it give?
Answer: 47.5%

Question: Which remaining activity at 1 µM does the source give for O=C1NC(=S)NC(=O)C1=Cc1cn(Cc2ccc3ccccc3c2)c2ccc(Cl)cc12 [PNR-7-2] here?
Answer: 17.8%

Question: O=C1NC(=O)C(=Cc2cn(Cc3ccc4ccccc4c3)c3ccc(Cl)cc23)C(=O)N1 [PNR-7-1] was tested. Which remaining activity at 1 µM did it give?
Answer: 14.8%

Question: With COc1ccc2c(c1)c(C=C1C(=O)NC(=O)NC1=O)cn2Cc1cccc2ccccc12 [PNR-6-85] as the molecule, how does the remaining activity at 1 µM read?
Answer: 52.7%

Question: For CN1C(=O)C(=Cc2cn(Cc3cccc4ccccc34)c3ccc(Cl)cc23)C(=O)N(C)C1=O [PNR-6-90], which remaining activity at 1 µM is on record?
Answer: 35.9%

Question: With COc1cc(Cn2c(C)c(C=C3C(=O)NC(=S)NC3=O)c3ccccc32)cc(OC)c1 [PNR-5-96] as the molecule, how does the remaining activity at 1 µM read?
Answer: 71.5%

Question: How did the remaining activity at 1 µM turn out when COc1ccc2c(c1)c(C=C1C(=O)NC(=S)NC1=O)cn2Cc1cccc(C(F)(F)F)c1 [PNR-7-21] was run?
Answer: 28.8%

Question: Which remaining activity at 1 µM does the source give for COc1ccc2c(c1)c(C=C1C(=O)NC(=S)NC1=O)c(C)n2Cc1cccc2ccccc12 [PNR-7-27] here?
Answer: 19.1%

Question: How did the remaining activity at 1 µM turn out when O=C1NC(=S)NC(=O)C1=Cc1cn(Cc2cccc3ccccc23)c2ccccc12 [PNR-6-83] was run?
Answer: 16%

Question: For Cc1c(C=C2C(=O)NC(=S)NC2=O)c2ccccc2n1C(=O)c1cccc2ccccc12 [PNR-6-65], which remaining activity at 1 µM is on record?
Answer: 65%

Question: How did the remaining activity at 1 µM turn out when O=C1NC(=S)NC(=O)C1=Cc1cn(Cc2ccc3ccccc3c2)c2ccccc12 [PNR-6-98] was run?
Answer: 15.7%

Question: How did the remaining activity at 1 µM turn out when COc1ccc2c(c1)c(C=C1C(=O)NC(=O)NC1=O)cn2Cc1ccc2ccccc2c1 [PNR-7-4] was run?
Answer: 24.7%

Question: Which remaining activity at 1 µM does the source give for O=C1NC(=S)NC(=O)C1=Cc1cn(Cc2cccc3ccccc23)c2ccc(Cl)cc12 [PNR-6-89] here?
Answer: 3.5%

Question: With COc1ccc2c(c1)c(C=C1C(=O)NC(=S)NC1=O)cn2Cc1ccc2ccccc2c1 [PNR-7-5] as the molecule, how does the remaining activity at 1 µM read?
Answer: 13.8%

Question: How did the remaining activity at 1 µM turn out when O=C1NC(=O)C(=Cc2cn(Cc3ccccc3Br)c3ccccc23)C(=O)N1 [PNR-7-7] was run?
Answer: 14.1%

Question: For CN1C(=O)C(=Cc2cn(Cc3ccc4ccccc4c3)c3ccccc23)C(=O)N(C)C1=O [PNR-6-99], which remaining activity at 1 µM is on record?
Answer: 71.7%

Question: For CN1C(=O)C(=Cc2cn(Cc3cccc(C(F)(F)F)c3)c3ccccc23)C(=O)N(C)C1=O [PNR-7-16], which remaining activity at 1 µM is on record?
Answer: 17.2%

Question: How did the remaining activity at 1 µM turn out when CN1C(=O)C(=Cc2cn(Cc3ccc4ccccc4c3)c3ccc(Cl)cc23)C(=O)N(C)C1=O [PNR-7-3] was run?
Answer: 59.1%

Question: For O=C1NC(=O)C(=Cc2cn(Cc3cccc(C(F)(F)F)c3)c3ccc(Cl)cc23)C(=O)N1 [PNR-7-17], which remaining activity at 1 µM is on record?
Answer: 57.1%

Question: For O=C1NC(=O)C(=Cc2cn(Cc3cccc4ccccc34)c3ccc(Br)cc23)C(=O)N1 [PNR-6-91], which remaining activity at 1 µM is on record?
Answer: 12.7%

Question: Which remaining activity at 1 µM does the source give for Cc1c(C=C2C(=O)NC(=S)NC2=O)c2ccccc2n1Cc1ccc([N+](=O)[O-])cc1 [PNR-6-17] here?
Answer: 69.8%

Question: For CN1C(=O)C(=Cc2cn(Cc3cccc4ccccc34)c3ccc(Br)cc23)C(=O)N(C)C1=O [PNR-6-93], which remaining activity at 1 µM is on record?
Answer: 45.8%

Question: Which remaining activity at 1 µM does the source give for Cc1c(C=C2C(=O)NC(=O)NC2=O)c2ccccc2n1C(=O)c1cccc2ccccc12 [PNR-6-64] here?
Answer: 71.7%

The molecules below were run against T1, EndoG (assay: Plasmid incision assay). Settings: agarose gel, FIG. 9.
Format: biochemical
Experimental: A reaction mixture was prepared containing 0.5 μg pECFP plasmid DNA, 2 mM CaCl2, 5 mM MgCl2, 10 mM Tris-HCl, pH 7.4, 0.5 mM dithiothreitol. The test compound [50 ng in DMSO (1 μl)] was added. Recombinant EndoG was then added to the final concentration of 200 ng/ml and the reaction was incubated for 1 h at 37° C. The reaction was terminated by adding 2 μl of 10 mM Tris-HCl, pH 7.4, 1% SDS, 25 mM EDTA, 7.2 mM bromophenol blue. The samples were run in 1% agarose gel in Tris-acetate-EDTA buffer (40 mM Tris, 20 mM acetic acid, 1 mM EDTA, pH 8), at 7 V/cm for 35 min, and DNA was stained with ethidium bromide. An EagleEye scanning densitometer (Stratagene, La Jolla, Calif.) was utilized to quantify the relative amount of endonuclease-treated plasmid DNA present in a covalently-closed circular (supercoiled) DNA, open circular DNA, or linear DNA, or in a digested form.

Question: With [Cl-].[Cl-].[Zn+2] [ZnCl2, reference compound] as the molecule, how does the “protection of supercoiled plasmid DNA from degradation by EndoG” value read?
Answer: inhibited

These molecules were tested against T2, hpol η (Homo sapiens, UniProt Q9Y253) (assay: Fluorescence-based DNA polymerase strand-displacement assay). Settings: not given.
T2 construct: human DNA polymerases η (amino acids 1-437); 6x-histidine (N, cleaved yes); GST (N, cleaved yes); made in house; host or cells: Escherichia coli BL21 (DE3)
T2 sequence (Q9Y253 1-437): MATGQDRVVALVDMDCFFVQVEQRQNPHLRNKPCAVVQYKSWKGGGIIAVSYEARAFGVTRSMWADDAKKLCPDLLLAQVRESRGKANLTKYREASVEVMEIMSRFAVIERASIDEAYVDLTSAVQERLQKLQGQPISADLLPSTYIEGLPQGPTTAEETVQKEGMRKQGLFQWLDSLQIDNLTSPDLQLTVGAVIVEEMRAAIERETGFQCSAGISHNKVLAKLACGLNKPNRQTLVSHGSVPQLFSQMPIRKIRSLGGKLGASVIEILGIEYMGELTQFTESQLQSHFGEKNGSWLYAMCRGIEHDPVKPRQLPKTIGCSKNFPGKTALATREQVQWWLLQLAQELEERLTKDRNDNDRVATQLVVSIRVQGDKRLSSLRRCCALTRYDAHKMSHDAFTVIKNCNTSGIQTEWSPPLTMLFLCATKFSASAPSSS
Format: biochemical
Description: A library of 320 compounds targeted against nucleic acid interacting proteins was screened for inhibition of polymerase activity using an assay that monitors fluorescence from a 5-carboxytetramethylrhodamine (TAMRA) labeled oligonucleotide. In order to prepare the DNA for the experiment, a TAMRA-labeled reporter (or displaced) strand (SEQ ID NO. 4: 5′-TTT TTT TTG C-TAMRA-3′) and unlabeled primer strand (SEQ ID NO. 5: 5′-TCA CCC TCGTAC GAC TCT T-3′) were annealed to a Black Hole Quencher (BHQ)-labeled template strand (SEQ ID NO. 6: 5′BHQ2-GCAAAAAAAAAA GAG TCG TAC GAG GGT GA-3′) in a solution containing 10 mM Tris (pH 8.0), 50 mM NaCl, 2 mM MgCl2, and dH2O. The template (T), primer (P) and displaced strand (D) oligonucleotides were mixed in a 1:1.5:1.5 (T:P:D) molar ratio for annealing. After an incubation period of three minutes at 95° C., the DNA was allowed to slowly cool to room temperature overnight.
The fluorescence-based assay used to screen for polymerase inhibitors measures polymerase-catalyzed displacement of a TAMRA-labeled oligonucleotide (FIG. 1). For the initial screen, the experimental setup included 50 nM hpol η), 50 nM DNA, 6 μM compound, 100 μM dTTP and 1 mM MgCl2. The reactions were performed in 50 mM Tris (pH 8.0) buffer containing 40 mM NaCl, 2 mM dithiothreitol, and 0.01% (v/v) Tween-20. The concentration of dimethyl sulfoxide (DMSO) was 3.5% (v/v) for the initial screen. The enzyme, the compounds (including a DMSO control) and dTTP were combined with the reaction buffer in individual wells of each half-plate and allowed to incubate for 5-10 minutes. The DNA substrate was subsequently added to initiate the reaction and the plate was read immediately using a BioTek SynergyH4 plate reader (λex=525 nm, λem=598 run). The final reaction volume was 200 μL. Fluorescence was monitored for 90 minutes for most reactions. The initial portion of the velocity curve was analyzed by linear regression to calculate an observed rate of product formation. For each data set, eight DMSO control experiments were averaged to obtain our measure of 100% activity. Rates of product formation in the presence of each compound were then divided by the rate of the DMSO control to produce a relative measure of polymerase activity (0 to 1, with 1 being no inhibition).
In order to determine the IC50 value for each enzyme, the fluorescence-based polymerase assay was repeated with increasing concentrations of inhibitor. The conditions varied slightly for each enzyme. With the exception of hpol ι, all IC50 experiments were performed in 50 mM Tris HCl (pH 8.0) buffer containing 1 mM MgCl2, 0.1 mM dTTP, 40 mM NaCl, 2 mM DTT, 0.01% (v/v) Tween-20 and 10% (v/v) DMSO. For experiments with hpol ι, KCl was substituted for NaCl and 0.25 mM MnCl2 was substituted for MgCl2. The concentration of inhibitor was 0, 1, 5, 10, 20, 30, 50, 75 and 100 μM. The enzyme and DNA concentrations were as follows: 10 nM hpol η, 50 nM DNA; 3 nM hpol κ, 60 nM DNA; 50 nM hpol ι, 50 nM DNA; 10 nM Dpo4, 50 nM DNA; 100 nM Dpo1, 50 nM DNA; 50 nM hpol β, 50 nM DNA; 50 nM HIV-1 RT, 50 nM DNA. The percent activity was plotted as a function of the log of inhibitor concentration and fit to a four-parameter logistic model (equation 1) using Prism software (Graph Pad, San Diego, Calif.): […]

Question: For O=C1NC(=S)NC(=O)C1=Cc1cn(C(=O)c2cccc3ccccc23)c2ccc(Cl)cc12 [ITBA-17], which IC50 is on record?
Answer: 15.8 ± 3.3 µM

Same assay, conditions: 50 μM compound

Question: Which “hpol η percent activity relative to the control assay” value does the source give for O=C1NC(=S)NC(=O)C1=Cc1cn(C(=O)c2cccc3ccccc23)c2ccc(Cl)cc12 [ITBA-17] here?
Answer: most potent inhibitor
